Reference: patent US20250339426A1, “GCN2 MODULATOR FOR TREATING CANCER” (HIBERCELL, INC., priority 2022, published 2025)
pEC50: −log10 of the molar value.

Key:
CTG-3679 = assay: Ex vivo AML PDX cell viability (Cell Titer Glo); assay type: cell-based; conditions: Homo sapiens, 144 h; PDX model CTG-3679, 6 days; read-out: HC-7366 EC50
Experimental: (§1) . Cell viability was assayed after treating PDX models with DMSO or HC-7366 for 6 days using a plate-based luminescence assay (Cell Titer Glo). […]
(§2) EC50 values were calculated to the bottom of the curve and are provided below. Viability curves are provided for the models CTG-2229 (FIG. 81), CTG-3680 (FIG. 82), CTG-3667 (FIG. 83), CTG-2456 (FIG. 84), CTG-2457 (FIG. 85), and CTG-2454 (FIG. 86).

CTG-2456 = assay: Ex vivo AML PDX cell viability (Cell Titer Glo); assay type: cell-based; conditions: Homo sapiens, 144 h; PDX model CTG-2456, 6 days; read-out: HC-7366 EC50
Experimental: as §1, §2

CTG-3438 = assay: Ex vivo AML PDX cell viability (Cell Titer Glo); assay type: cell-based; conditions: Homo sapiens, 144 h; PDX model CTG-3438, 6 days; read-out: HC-7366 EC50
Experimental: as §1, §2

CTG-2227 = assay: Ex vivo AML PDX cell viability (Cell Titer Glo); assay type: cell-based; conditions: Homo sapiens, 144 h; PDX model CTG-2227, 6 days; read-out: HC-7366 EC50
Experimental: as §1, §2

CTG-2775 = assay: Ex vivo AML PDX cell viability (Cell Titer Glo); assay type: cell-based; conditions: Homo sapiens, 144 h; PDX model CTG-2775, 6 days; read-out: HC-7366 EC50
Experimental: as §1, §2

CTG-3441 = assay: Ex vivo AML PDX cell viability (Cell Titer Glo); assay type: cell-based; conditions: Homo sapiens, 144 h; PDX model CTG-3441, 6 days; read-out: HC-7366 EC50
Experimental: as §1, §2

CTG-2233 = assay: Ex vivo AML PDX cell viability (Cell Titer Glo); assay type: cell-based; conditions: Homo sapiens, 144 h; PDX model CTG-2233, 6 days; read-out: HC-7366 EC50
Experimental: as §1, §2

CTG-2235 = assay: Ex vivo AML PDX cell viability (Cell Titer Glo); assay type: cell-based; conditions: Homo sapiens, 144 h; PDX model CTG-2235, 6 days; read-out: HC-7366 EC50
Experimental: as §1, §2

CTG-2236 = assay: Ex vivo AML PDX cell viability (Cell Titer Glo); assay type: cell-based; conditions: Homo sapiens, 144 h; PDX model CTG-2236, 6 days; read-out: HC-7366 EC50
Experimental: as §1, §2

CTG-2229 = assay: Ex vivo AML PDX cell viability (Cell Titer Glo); assay type: cell-based; conditions: Homo sapiens, 144 h; PDX model CTG-2229, 6 days; read-out: HC-7366 EC50
Experimental: as §1, §2

CTG-2455 = assay: Ex vivo AML PDX cell viability (Cell Titer Glo); assay type: cell-based; conditions: Homo sapiens, 144 h; PDX model CTG-2455, 6 days; read-out: HC-7366 EC50
Experimental: as §1, §2

CTG-3674 = assay: Ex vivo AML PDX cell viability (Cell Titer Glo); assay type: cell-based; conditions: Homo sapiens, 144 h; PDX model CTG-3674, 6 days; read-out: HC-7366 EC50
Experimental: as §1, §2

CTG-3440 = assay: Ex vivo AML PDX cell viability (Cell Titer Glo); assay type: cell-based; conditions: Homo sapiens, 144 h; PDX model CTG-3440, 6 days; read-out: HC-7366 EC50
Experimental: as §1, §2

CTG-2232 = assay: Ex vivo AML PDX cell viability (Cell Titer Glo); assay type: cell-based; conditions: Homo sapiens, 144 h; PDX model CTG-2232, 6 days; read-out: HC-7366 EC50
Experimental: as §1, §2

CTG-2238 = assay: Ex vivo AML PDX cell viability (Cell Titer Glo); assay type: cell-based; conditions: Homo sapiens, 144 h; PDX model CTG-2238, 6 days; read-out: HC-7366 EC50
Experimental: as §1, §2

CTG-2457 = assay: Ex vivo AML PDX cell viability (Cell Titer Glo); assay type: cell-based; conditions: Homo sapiens, 144 h; PDX model CTG-2457, 6 days; read-out: HC-7366 EC50
Experimental: as §1, §2

CTG-2700 = assay: Ex vivo AML PDX cell viability (Cell Titer Glo); assay type: cell-based; conditions: Homo sapiens, 144 h; PDX model CTG-2700, 6 days; read-out: HC-7366 EC50
Experimental: as §1, §2

CTG-3673 = assay: Ex vivo AML PDX cell viability (Cell Titer Glo); assay type: cell-based; conditions: Homo sapiens, 144 h; PDX model CTG-3673, 6 days; read-out: HC-7366 EC50
Experimental: as §1, §2

CTG-2453 = assay: Ex vivo AML PDX cell viability (Cell Titer Glo); assay type: cell-based; conditions: Homo sapiens, 144 h; PDX model CTG-2453, 6 days; read-out: HC-7366 EC50
Experimental: as §1, §2

CTG-2239 = assay: Ex vivo AML PDX cell viability (Cell Titer Glo); assay type: cell-based; conditions: Homo sapiens, 144 h; PDX model CTG-2239, 6 days; read-out: HC-7366 EC50
Experimental: as §1, §2

CTG-3439 = assay: Ex vivo AML PDX cell viability (Cell Titer Glo); assay type: cell-based; conditions: Homo sapiens, 144 h; PDX model CTG-3439, 6 days; read-out: HC-7366 EC50
Experimental: as §1, §2

CTG-3680 = assay: Ex vivo AML PDX cell viability (Cell Titer Glo); assay type: cell-based; conditions: Homo sapiens, 144 h; PDX model CTG-3680, 6 days; read-out: HC-7366 EC50
Experimental: as §1, §2

[1] = test system: LoVo (human colorectal cancer cells); assay: In vivo tumor growth inhibition, LoVo xenograft; set-up: species or system BALB/c nude mice; conditions: both 1 and 3 mg/kg twice daily oral
Experimental: LoVo (human colorectal cancer cells): Female 6-8 weeks old BALB/c nude mice were inoculated subcutaneously on the right flank with LoVo tumor cells (5×10^6) in 0.1 ml of EMEM medium without serum for tumor development. The treatments were started when the mean tumor size reached approximately 243 mm^3 at Day 16 post inoculation and continued until end of study by twice daily oral gavage dosing of HC-7366 at listed doses (vehicle, 0.3 mg/kg HC-7366, 1 mg/kg HC-7366, 3 mg/kg HC-7366, 10 mg/kg HC-7366, or 30 mg/kg HC-7366, FIGS. 8-9).
[formula] • 2.2.2 Tumor Measurements: The measurement of tumor size was conducted three times weekly with a caliper and recorded. The tumor volume (mm^3) was estimated using the formula: TV=a×b^2/2, where “a” and “b” is long and short diameters of a tumor, respectively. Tumor volume was calculated using the formula [tumor volume (mm^3)=π/6×length×width^2).
Regression was calculated using the formula=100×ΔT/T initial, if ΔT<0. Animals with 0 mm^3 tumor volume (no measurable tumor) for three consecutive measurements were considered as complete responders and animals with 50% tumor regressions were partial responders.

SMILES: CNC(=O)c1ncn2cc(-c3c(F)ccc(NS(=O)(=O)c4cc(Cl)cnc4OC)c3F)ncc12 [HC-7366, 6-(3-((5-chloro-2-methoxypyridine)-3-sulfonamido)-2,6-difluorophenyl)-N-methylimidazo[1,5-a]pyrazine-1-carboxamide]
- pEC50 (CTG-3679): 3.97
- pEC50 (CTG-2456): 4.50
- pEC50 (CTG-3438): 3.71
- pEC50 (CTG-2227): 4.40
- pEC50 (CTG-2775): 4.36
- pEC50 (CTG-3441): 3.99
- pEC50 (CTG-2233): 3.99
- pEC50 (CTG-2235): 3.99
- pEC50 (CTG-2236): 4.44
- pEC50 (CTG-2229): 4.47
- pEC50 (CTG-2455): 4.45
- pEC50 (CTG-3674): 3.89
- pEC50 (CTG-3440): 4.26
- pEC50 (CTG-2232): 4.07
- pEC50 (CTG-2238): 3.91
- pEC50 (CTG-2457): 3.61
- pEC50 (CTG-2700): 3.48
- pEC50 (CTG-3673): 4.18
- pEC50 (CTG-2453): 3.75
- pEC50 (CTG-2239): 2.93
- pEC50 (CTG-3439): 3.46
- pEC50 (CTG-3680): 3.64
- tumor growth inhibition [1]: 94%
